According to US11226337B2, “Chemoproteomic profiling of protein electrophilic and oxidative post-translational modifications” (Zenagem, LLC, priority 2017, dated 2022):

Target: T1, PLOD3 Procollagenlysine, 2oxoglutarate (O60568) (Homo sapiens, UniProt O60568)
T1 construct: In Situ Labelling of Cells with Hydrazine Probes for MS Experiments; endogenous in cells; host or cells: HEK293T and MDA-MB-231
T1 sequence (O60568 25-738): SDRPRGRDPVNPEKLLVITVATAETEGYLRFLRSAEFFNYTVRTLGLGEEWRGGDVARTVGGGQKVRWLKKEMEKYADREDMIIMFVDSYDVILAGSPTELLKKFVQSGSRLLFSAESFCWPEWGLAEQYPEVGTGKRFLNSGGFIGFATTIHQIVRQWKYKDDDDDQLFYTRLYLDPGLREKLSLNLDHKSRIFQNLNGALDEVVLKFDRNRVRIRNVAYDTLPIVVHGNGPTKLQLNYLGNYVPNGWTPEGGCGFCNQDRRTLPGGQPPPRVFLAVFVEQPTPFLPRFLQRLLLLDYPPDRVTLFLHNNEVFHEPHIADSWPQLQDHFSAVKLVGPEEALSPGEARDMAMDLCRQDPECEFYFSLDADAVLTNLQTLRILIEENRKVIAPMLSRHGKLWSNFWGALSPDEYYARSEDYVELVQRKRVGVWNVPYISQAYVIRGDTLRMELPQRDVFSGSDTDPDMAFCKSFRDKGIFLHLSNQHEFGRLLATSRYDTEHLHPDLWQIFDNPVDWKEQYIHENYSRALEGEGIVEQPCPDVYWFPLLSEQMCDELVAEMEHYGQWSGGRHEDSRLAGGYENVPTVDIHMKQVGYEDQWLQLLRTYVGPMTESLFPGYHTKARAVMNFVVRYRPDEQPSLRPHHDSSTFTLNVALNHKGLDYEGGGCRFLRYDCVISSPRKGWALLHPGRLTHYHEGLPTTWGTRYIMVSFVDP
Assay: SILAC RP-ABPP
Type: cell-based
Conditions: SILAC H/L
Procedure: For MS-based experiments, labelling was performed in a similar manner as described above in Example 2, maintaining the same concentrations of probes. Modifications to this protocol included using isotopically ‘light’ and ‘heavy’ SILAC cells that were also grown to near complete confluence prior to treatment. Isotopically light cells were treated with the non-clickable hydrazine probe (at the same concentration as the probe in ‘enrichment’ experiments) or the probe in the presence of 10-fold excess non-clickable hydrazine probe as a competitor (in ‘competition’ experiments). Isotopically heavy cells were treated with the probe for both types of experiments. These treatments were performed in non-SILAC media. Following treatments, cells were washed with cold PBS to remove the probe-containing media, harvested by scraping, collected by centrifugation (1,400 g, 3 min, 4° C.), washed again by resuspension in cold PBS and frozen as pellets at −80° C. until use.
The fractionated equimolar mixture of heavy and light soluble proteomes (1-1.5 mg) was diluted to 1 mL in PBS. Click reactions were scaled accordingly (except for biotin-azide) to maintain final concentrations of 0.1 mM TBTA, 1 mM CuSO4, 100 μM biotin-azide (10 mM in DMSO) and 1 mM TCEP. The mixture was vortexed and placed on a rotator at ambient temperature for 1 hour. Sequential addition of and mixture with pre-chilled methanol (MeOH, 2 mL), chloroform (CHCl3, 0.5 mL) and PBS (1 mL) on ice quenched the reaction. The precipitated proteome was centrifuged (5,000 g, 10 min, 4° C.) to fractionate the protein interphase from the organic and aqueous solvent layers. The protein pellet was washed with cold 1:1 MeOH:CHCl3 (3×1 mL), mildly sonicated in cold 4:1 MeOH:CHCl3 (2.5 mL) and pelleted once more by centrifugation (5,000 g, 10 min, 4° C.) to ensure click reagents were efficiently removed.
Heavy and light parent ion chromatograms associated with successfully identified peptides were extracted and compared using CIMAGE software as previously described^69. At least one ion of a co-eluting heavy-light pair must be accurately identified from a fragmentation event that occurred within the retention time window (±10 min) of parent ion elution. To ensure that the correct pair of peaks is quantified, chromatograms are extracted within a 10 ppm error tolerance of the predicted m/z, the signal-to-noise ratio must be >2.5 and the ‘co-elution correlation score’ and ‘envelope correlation score’ must have R^2 values ≥0.8. In addition, peptides detected as ‘singletons,’ where only the heavy ion of a peptide pair was identified, but for which passed all other filtering parameters, are given a default assigned ratio of ‘20,’ which is defined as any measured ratio that is ≥20.
To further eliminate false positives and any stochastic variability in the data, protein ratios were then determined by the median peptide ratio derived from three or more unique quantified peptides. Protein ratios that complied with these criteria from a single experiment were then averaged with ratios acquired from ≥3 replicates to provide final values for each type of experiment in both cell lines with both probes. […] Most importantly, there are no robustly measured ratios for proteins identified as probe 1 targets that had measured ratios of ˜1 with probe 2. Probe targets in HEK293T and MDA-MB-231 cells represent data combined from ≥3 independent biological replicates with each cell type performed with several independent batches of synthesized probes over a period of almost two years. […]

Row | enrichment ratioavg (probe 2 1 mM 0.5 h vs probe 4, HEK293T) | competition ratioavg (probe 2 vs probe 2+10x probe 4, HEK293T) | SMILES | enrichment ratioavg (probe 1 3 mM 0.5 h vs probe 3, MDA-MB-231) | competition ratioavg (probe 1 vs probe 1+10x probe 3, MDA-MB-231)
1 |  |  | C#CCNN.Cl [probe 1, prop-2-yn-1-ylhydrazine hydrochloride] | 14 | 2
2 | 20 | 6 | C#CCCNC(=O)c1ccc(NN)cc1.Cl [probe 2, N-(but-3-yn-1-yl)-4-hydrazinylbenzamide hydrochloride] |  | 
